Source: patent US20180228799A1, “Treatment for Neurological and Mental Disorders” (PSYCHOGENICS, INC., priority 2008, published 2018)
Entries after “also recorded” stand apart in the source; their conditions may differ.

Assays:
[1] = tested on: symptoms of ADHD in adults; assay: ADHD-RS-IV, double-blind placebo-controlled crossover trial in adults with ADHD; assay type: in vivo, human; settings: for ADHD-RS-IV Inattention subscale, Baseline Score / ADHD-RS-IV Hyperactivity subscale, Baseline Score / ADHD-RS-IV Impulsivity subscale, Baseline Score / ADHD-RS-IV Total score, Baseline Score: before treatment
Procedure: The primary objective of this study was to compare the effects of two doses of eltoprazine with placebo on symptoms of ADHD in adults. The primary efficacy parameter is the Attention-Deficit/Hyperactivity Disorder Rating Scale-IV (ADHD-RS-IV).
(§1) This double-blind, multiple-dose, placebo-controlled, crossover study was conducted to assess the effects of 14 days of oral eltoprazine treatment in 48 adults with ADHD. Subjects eligible for study enrollment were to have met Diagnostic and Statistical Manual of Mental Disorders, Fourth Edition, Text Revision (DSM-IV-TR) criteria for ADHD. Assessment was to be made by clinical history, a Structured Clinical Interview for DSM-IV Axis Disorders-Research Version (SCID-RV), and a Conners' Adult ADHD Diagnostic Interview for DSM IV (CAADID).
(§2) Oral doses of eltoprazine hydrochloride were 5 mg/day or 10 mg/day for 14 consecutive days (i.e., 2.5 or 5 mg twice daily (bid), respectively). Eltoprazine hydrochloride was administered in gelatin capsules with calcium hydrogen phosphate, 2H2O, maize starch NF, polyethylene glycol 6000 NF and magnesium stearate NF as excipients.
Primary endpoints were evaluated with the ADHD-RS-IV. After 14 days of treatment with placebo, 5 mg/day, or 10 mg/day eltoprazine, overall symptoms of ADHD were improved as measured by the ADHD-RS-IV, in which higher scores reflect greater impairment.
ADHD-RS-IV, CPT, and CGI-I scores were analyzed separately for those subjects whose baseline score was >40, indicating greater impairment. Twenty-two subjects had baseline ADHD-RS-IV total scores >40.

[2] = tested on: symptoms of ADHD in adults; assay: Clinical Global Impressions-Improvement (CGI-I), same trial; assay type: in vivo, human; settings: 14 days; for CGI-I, percent of subjects showing improvement: b136 all subjects
Procedure: as §1, §2
Secondary endpoints were evaluated with the Clinical Global Impressions-Improvement (CGI-I) and Continuous Performance Test. (CPT). The CGI-I test is used to determine the […] of improvement.

mice = assay: Timing/Peak Procedure operant test (attention, impulsivity); assay type: in vivo; settings: 0.1 mg/kg IP, FIG. 1
Description: The Timing/Peak Procedure test is an operant test in which mice are trained to respond to a food reward at a fixed time interval of 30 sec. Mice learn to increase their responding around the 30 sec time period. This test assesses impulsivity, attention and timing perception. A high peak of responding at the 30 sec interval and narrow spread are signatures of the animal's improved attention and time perception.
In brief, mice were placed in a chamber and trained to lever press for food. After training, animals learn to respond after a fixed interval of 30 sec has elapsed as only this fixed interval response produces a reward. With reinforcement delivery the lever is retracted and an inter-trial-interval commences. Once the animal was trained on the reinforced trials, “peak trials” or unreinforced trials are introduced and intermixed with reinforced trials. During these empty trials, no responses were reinforced and the trial lasts for 120 sec (i.e., the lever is extended but reinforcement is not presented). After the 120 sec elapses, the trial terminated, the lever was retracted and the inter-trial-interval started as before. The animals therefore learned that if after a period of 30 sec, no food has been presented there will be no reinforcement delivery until the lever is retracted and the trial starts again.
To perform well on this task, animals need to learn an association between a response (lever pressing) and the delivery of reinforcement (condensed milk), they need to perceive and remember time, they need to act on the remembered time by responding or by inhibiting a response and finally they need to compare the elapsed time during a trial with their memory for the time for reinforcement. A true cognitive enhancer therefore should decrease responding after reinforcement time, without affecting the peak time, i.e., sharpening the curve and reducing the spread in the response curve. A sharpened curve is indicative of heightened attentional processes.

dopamine receptors = settings: Schipper et al.; read-out: Ki (affinity for dopamine receptors); cited from earlier work
5-HT1B = 5-HT1B (Homo sapiens, UniProt P28222); settings: Schipper et al.; cited from earlier work
Sequence of 5-HT1B (P28222 whole entry, species assumed): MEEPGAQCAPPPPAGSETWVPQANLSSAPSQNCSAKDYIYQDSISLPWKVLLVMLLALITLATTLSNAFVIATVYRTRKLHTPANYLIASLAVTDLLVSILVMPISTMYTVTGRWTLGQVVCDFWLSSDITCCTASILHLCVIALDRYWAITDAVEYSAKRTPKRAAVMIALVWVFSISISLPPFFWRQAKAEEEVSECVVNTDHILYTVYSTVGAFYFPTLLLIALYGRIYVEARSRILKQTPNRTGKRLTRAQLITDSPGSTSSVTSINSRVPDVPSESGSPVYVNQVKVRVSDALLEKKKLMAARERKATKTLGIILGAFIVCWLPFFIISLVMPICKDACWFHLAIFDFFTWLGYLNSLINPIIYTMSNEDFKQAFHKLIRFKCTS

5-HT2C receptors = target: T1, 5-HT2C receptors (Homo sapiens, UniProt P28335); settings: relative to 5-HT1A, 5-HT1B; Schipper et al.; cited from earlier work
T1 sequence (P28335 33-458): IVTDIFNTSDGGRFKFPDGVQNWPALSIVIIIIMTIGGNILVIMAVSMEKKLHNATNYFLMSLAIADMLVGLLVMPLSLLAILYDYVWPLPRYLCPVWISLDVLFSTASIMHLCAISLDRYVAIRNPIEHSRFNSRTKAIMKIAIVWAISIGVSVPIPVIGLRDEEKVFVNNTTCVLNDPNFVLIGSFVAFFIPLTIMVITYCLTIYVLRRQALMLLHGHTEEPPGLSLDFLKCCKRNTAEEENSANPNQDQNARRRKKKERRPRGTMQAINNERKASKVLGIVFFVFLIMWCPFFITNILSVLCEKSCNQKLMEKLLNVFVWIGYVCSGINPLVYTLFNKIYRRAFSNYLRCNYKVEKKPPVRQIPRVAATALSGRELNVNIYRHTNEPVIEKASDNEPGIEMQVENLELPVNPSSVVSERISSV

[3] = 5 mg/day oral, 14 days, all patients N = 38
[4] = 5 mg/day oral, all patients N = 38
[5] = 10 mg/day oral, 14 days, all patients N = 37
[6] = 10 mg/day oral, all patients N = 37
[7] = subjects with baseline score >40 (more severe ADHD), 5 mg/day, 14 days

## c1cc2c(c(N3CCNCC3)c1)OCCO2 [Eltoprazine, 1-(2,3-dihydro-1,4-benzodioxanyl-5-yl) piperazine]
[1]; 5 mg/day oral (2.5 mg bid), 14 days, all patients N = 38
  ADHD-RS-IV Inattention subscale, Post Treatment Score: 14.5
[1]; 5 mg/day oral (2.5 mg bid), all patients N = 38
  ADHD-RS-IV Inattention subscale, Baseline Score: 23.8
[1]; [3]
  ADHD-RS-IV Hyperactivity subscale, Change from Baseline: −5.9
  ADHD-RS-IV Hyperactivity subscale, Change from Baseline (percent decrease): 47%
  ADHD-RS-IV Hyperactivity subscale, Post Treatment Score: 6.6
  ADHD-RS-IV Impulsivity subscale, Change from Baseline: −2.7
  ADHD-RS-IV Impulsivity subscale, Change from Baseline (percent decrease): 44%
  ADHD-RS-IV Impulsivity subscale, Post Treatment Score: 3.4
  ADHD-RS-IV Inattention subscale, Change from Baseline: −9.4
  ADHD-RS-IV Inattention subscale, Change from Baseline (percent decrease): 39%
  ADHD-RS-IV Total score, Change from Baseline: −17.9
  ADHD-RS-IV Total score, Change from Baseline (percent decrease): (42%)
  ADHD-RS-IV Total score, Post Treatment Score: 24.5
[1]; 5 mg/day oral, 14 days, all patients N = 38, listed as eltoprazine
  ADHD-RS-IV Total score, Change from Baseline (percent decrease): 42%
[1]; [4]
  ADHD-RS-IV Hyperactivity subscale, Baseline Score: 12.5
  ADHD-RS-IV Impulsivity subscale, Baseline Score: 6.1
  ADHD-RS-IV Total score, Baseline Score: 42.4
[1]; 10 mg/day oral (5 mg bid), 14 days, all patients N = 37
  ADHD-RS-IV Inattention subscale, Post Treatment Score: 14.8
[1]; 10 mg/day oral (5 mg bid), all patients N = 37
  ADHD-RS-IV Inattention subscale, Baseline Score: 23.8
[1]; [5]
  ADHD-RS-IV Hyperactivity subscale, Change from Baseline: −5.5
  ADHD-RS-IV Hyperactivity subscale, Change from Baseline (percent decrease): 43%
  ADHD-RS-IV Hyperactivity subscale, Post Treatment Score: 7.2
  ADHD-RS-IV Impulsivity subscale, Change from Baseline: −2.9
  ADHD-RS-IV Impulsivity subscale, Change from Baseline (percent decrease): 47%
  ADHD-RS-IV Impulsivity subscale, Post Treatment Score: 3.2
  ADHD-RS-IV Inattention subscale, Change from Baseline: −9.0
  ADHD-RS-IV Inattention subscale, Change from Baseline (percent decrease): 38%
  ADHD-RS-IV Total score, Change from Baseline: −17.4
  ADHD-RS-IV Total score, Change from Baseline (percent decrease): (41%)
  ADHD-RS-IV Total score, Post Treatment Score: 25.3
[1]; 10 mg/day oral, 14 days, all patients N = 37, listed as eltoprazine
  ADHD-RS-IV Total score, Change from Baseline (percent decrease): 41%
[1]; [6]
  ADHD-RS-IV Hyperactivity subscale, Baseline Score: 12.8
  ADHD-RS-IV Impulsivity subscale, Baseline Score: 6.1
  ADHD-RS-IV Total score, Baseline Score: 42.7
[1]; human clinical study in patients with ADHD
  Selective action on ADHD symptoms (inattention, hyperactivity, impulsivity): predominantly on inattention and hyperactivity and to a lesser degree impulsivity; also recorded: greater activity treating hyperactivity and inattention compared to impulsivity
[1]; [7]
  ADHD-RS-IV hyperactivity subscale score, decrease from baseline (improvement): 56%
  ADHD-RS-IV impulsivity subscale score, decrease from baseline (improvement): 55%
  ADHD-RS-IV inattention subscale score, decrease from baseline (improvement): 54%
  ADHD-RS-IV total score, decrease from baseline: 55%
[2]; 5 mg/day, n = 38
  CGI-I Mean Improvement (S.D.): 2.6 (1.2)
  CGI-I, Number of Patients Improved: 26
  CGI-I, Number of Patients Not Improved: 12
[2]; 5 mg/day, b141/b146 subgroup with baseline score >40
  CGI-I, percent of subjects showing improvement: 62%
[2]; 10 mg/day, n = 37
  CGI-I Mean Improvement (S.D.): 2.7 (0.9)
  CGI-I, Number of Patients Improved: 30
  CGI-I, Number of Patients Not Improved: 7
[2]; 10 mg/day, b141 subgroup with baseline score >40
  CGI-I, percent of subjects showing improvement: 71%
[2]; more severely affected population (baseline score >40), 5 mg/day
  CGI reduction in severity score: 14%
mice
  Peak of responding: sharpens the peak of responding
  Spread of the response curve: significantly reduces the spread
mice; listed as eltoprazine
  Peak of responding: sharpened the peak of responding
mice; chronic administration
  Effect following chronic administration: no loss of effect
Dopamine receptors
  Ki: > 1000 nM
5-HT1B
  Binding affinity for 5-HT1B: roughly equipotent affinity
5-HT2C receptors
  Binding affinity for 5-HT2C receptors: somewhat lower affinity
